# Measured values taken from patent US20050101595A1, “N-containing cycloalkyl-substituted amino-thiazole derivatives and pharmaceutical compositions for inhibiting cell proliferation and methods for their use” (PFIZER INC., priority 2003, published 2005).
# Where a name gives a salt, the structure may show the parent alone. Read-outs that look alike come from different tables or passages of the source.
# Assays:
# HCT-116 cell line = experiment: Inhibition of cell growth, tetrazolium salt (MTT) assay; assay type: cell-based; settings: for HCT-116 % Inhibition at 0.25 μM: 0.25 μM compound; for IC50: Homo sapiens, HCT-116, 120 h, MTT, three to five days, read-out: HCT-116 IC50
# Procedure, shortened: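 Cells in McCoy's 5A medium were left 4 h, then given graded compound concentrations in 0.5% (v/v) DMSO and incubated three to five days at 37° C (5% CO2). MTT was added to 0.2 mg/mL for 4 h more; DMSO-solubilized formazan was read at 540 nm against 0.5% DMSO-only controls.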
# CDK2/Cyclin A = CDK2/Cyclin A (Homo sapiens, UniProt P24941); experiment: Inhibition of CDK2/Cyclin A Retinoblastoma Kinase Activity; assay type: biochemical; settings: for CDK2 % Inhibition At 0.03 μM: Table 2; for Ki: apparent Ki, CDK2/proteolyzed cyclin A, Rb fragment substrate, 25 μM ATP
# Procedure, shortened: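 Human CDK2, baculovirus/insect-cell expressed, complexed with proteolyzed cyclin A (10 nM or 19 nM CDK2) phosphorylates an Rb fragment with 25 μM [32P/33P]ATP at pH 7.4, 30° C, for 60 or 75 minutes under initial-rate conditions. Filter-captured radioactivity is read by phosphorimager; apparent Ki from competitive-inhibition fits.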
# [1] = biological target: human CDK4 and genetically truncated (1-264) cyclin D3 (Homo sapiens, UniProt P11802); experiment: Inhibition of CDK4/Cyclin D Retinoblastoma Kinase Activity; assay type: biochemical; settings: for Ki: apparent Ki, CDK4/truncated cyclin D3, Rb fragment substrate, 25 μM ATP
# Chain of human CDK4 and genetically truncated (1-264) cyclin D3 (P11802 whole entry, the tested form may be a part): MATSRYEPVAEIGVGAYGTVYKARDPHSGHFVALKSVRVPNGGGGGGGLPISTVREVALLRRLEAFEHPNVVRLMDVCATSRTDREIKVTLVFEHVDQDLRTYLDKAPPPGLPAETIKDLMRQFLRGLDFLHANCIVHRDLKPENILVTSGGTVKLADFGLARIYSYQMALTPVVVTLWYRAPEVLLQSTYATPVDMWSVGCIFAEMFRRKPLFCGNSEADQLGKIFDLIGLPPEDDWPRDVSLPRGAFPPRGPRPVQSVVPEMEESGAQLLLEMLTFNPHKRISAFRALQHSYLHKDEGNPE
# Chain of human CDK4 and genetically truncated (1-264) cyclin D3 (P30281 1-264 partner): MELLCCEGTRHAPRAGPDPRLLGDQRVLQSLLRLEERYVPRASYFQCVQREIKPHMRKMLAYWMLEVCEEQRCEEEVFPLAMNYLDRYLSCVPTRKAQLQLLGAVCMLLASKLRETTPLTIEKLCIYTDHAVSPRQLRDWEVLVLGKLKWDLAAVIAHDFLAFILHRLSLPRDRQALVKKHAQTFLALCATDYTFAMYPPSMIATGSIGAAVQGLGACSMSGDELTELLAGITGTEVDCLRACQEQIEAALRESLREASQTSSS
# Procedure, shortened: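 Read-out: 32P/33P incorporation into Rb fragment (386-928) captured on nitrocellulose, phosphorimager. Enzyme 5 nM CDK4/cyclin D3(1-264) from insect cells; ATP 25 μM, pH 7.4, 30 °C, 20 min (60 min for tight binders). Ki from competitive fits.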
# [2] = 0.1 μM compound, HCT-116, Table 3
structure (smiles),measurement,setting,value
CCOC(=O)C(C)NC(=O)N1CCC(Nc2nc(N)c(C(=O)c3c(F)cccc3F)s2)CC1 (stereo not shown) [Example O72],HCT-116 % Inhibition at 0.25 μM,"HCT-116 cell line; HCT-116, Table 2",62%
same,CDK2 % Inhibition At 0.03 μM,CDK2/Cyclin A; 0.03 μM compound,24%
same,CDK4 % Inhibition at 0.03 μM,"[1]; 0.03 μM compound, Table 2",11%
Cc1ccc(C)c(NC(=O)N2CCC(Nc3nc(N)c(C(=O)c4c(F)cccc4F)s3)CC2)c1 [Example O42],HCT-116 % Inhibition at 0.25 μM,"HCT-116 cell line; HCT-116, Table 2",26%
same,CDK2 % Inhibition At 0.03 μM,CDK2/Cyclin A; 0.03 μM compound,35%
same,CDK4 % Inhibition at 0.03 μM,"[1]; 0.03 μM compound, Table 2",10%
"Cn1cncc1-c1ccc(S(=O)(=O)N2CCC(Nc3nc(N)c(C(=O)c4c(F)cccc4F)s3)CC2)cc1 [Example F32, 1-(4-Amino-2-{1-[4-(3-methyl-3H-imidazol-4-yl)-benzenesulfonyl]-piperidin-4-ylamino}-thiazol-5-yl)-1-(2,6-difluoro-phenyl)-methanone Trifluoroacetic Acid Salt]",IC50,HCT-116 cell line; first HCT-116 column (c4),110 nM
same,IC50,HCT-116 cell line; second HCT-116 column (c5),380 nM
same,Ki,CDK2/Cyclin A,0.4 nM
same,Ki,[1],0.9 nM
"Nc1nc(NC2CCN(C(=O)c3cccc([N+](=O)[O-])c3)CC2)sc1C(=O)c1c(F)cccc1F [Example C12, 1-(4-Amino-2-{1-[1-(3-nitro-phenyl)-methanoyl]-piperidin-4-ylamino}-thiazol-5-yl)-1-(2,6-difluoro-phenyl)-methanone]",IC50,HCT-116 cell line; first HCT-116 column (c4),220 nM
same,IC50,HCT-116 cell line; second HCT-116 column (c5),510 nM
same,Ki,CDK2/Cyclin A,59 nM
same,Ki,[1],12 nM
"CN(CCS(=O)(=O)N1CCC(Nc2nc(N)c(C(=O)c3c(F)cccc3F)s2)CC1)c1ccccc1 [Example K37, (4-Amino-2-{1-[2-(methyl-phenyl-amino)-ethanesulfonyl]-piperidin-4-ylamino}-thiazol-5-yl)-(2,6-difluoro-phenyl)-methanone Trifluoroacetic Acid Salt.]",IC50,HCT-116 cell line; first HCT-116 column (c4),310 nM
same,IC50,HCT-116 cell line; second HCT-116 column (c5),1300 nM
same,Ki,CDK2/Cyclin A,7 nM
same,Ki,[1],3.2 nM
Nc1nc(NC2CCN(C(=O)c3ccc4c(c3)OCO4)CC2)sc1C(=O)c1c(F)cccc1F [Example R7],HCT-116 % Inhibition at 0.1 μM,"HCT-116 cell line; HCT-116 cells, at 0.1 μM",7%
same,HCT-116 5 Inhibition at 0.25 μM,HCT-116 cell line; HCT-116 cells,46
same,CDK2 % Inhibition at 0.03 μM,CDK2/Cyclin A; at 0.03 μM,−3%
same,CDK4 % Inhibition at 0.03 μM,[1]; at 0.03 μM,29%
"CN1CCC[C@H]1COc1ccc(S(=O)(=O)N2CCC(Nc3nc(N)c(C(=O)c4c(F)cccc4F)s3)CC2)cn1 [Example H12, 1-(4-Amino-2-{1-[6-(1-methyl-pyrrolidin-2S-ylmethoxy)-pyridine-3-sulfonyl]-piperidin-4-ylamino}-thiazol-5-yl)-1-(2,6-difluoro-phenyl)-methanone]",IC50,HCT-116 cell line; first HCT-116 column (c4),58 nM
same,IC50,HCT-116 cell line; second HCT-116 column (c5),400 nM
same,Ki,CDK2/Cyclin A,0.88 nM
same,Ki,[1],0.39 nM
Nc1nc(NC2CCN(S(=O)(=O)c3ccc(-c4ccccc4)cc3)CC2)sc1C(=O)c1c(F)cccc1F [Example P65],HCT-116 % Inhibition at 0.1 μM,HCT-116 cell line; [2],6%
same,HCT-116 % Inhibition at 0.25 μM,"HCT-116 cell line; HCT-116, Table 3",31%
same,CDK2 % Inhibition at 0.03 μM,"CDK2/Cyclin A; 0.03 μM compound, Table 3",48%
same,CDK4 % Inhibition at 0.03 μM,"[1]; 0.03 μM compound, Table 3",65%
"Nc1nc(NC2CCN(C(=O)c3sccc3Cl)CC2)sc1C(=O)c1c(F)cccc1F [Example C8, {4-Amino-2-[1-(3-chloro-thiophene-2-carbonyl)-piperidin-4-ylamino]-thiazol-5-yl}-(2,6-difluoro-phenyl)-methanone]",IC50,HCT-116 cell line; first HCT-116 column (c4),460 nM
same,IC50,HCT-116 cell line; second HCT-116 column (c5),1300 nM
same,Ki,CDK2/Cyclin A,45 nM
same,Ki,[1],41 nM
CCCNC(=O)N1CCC(Nc2nc(N)c(C(=O)c3c(F)cccc3F)s2)CC1 [Example O33],HCT-116 % Inhibition at 0.25 μM,"HCT-116 cell line; HCT-116, Table 2",31%
same,CDK2 % Inhibition At 0.03 μM,CDK2/Cyclin A; 0.03 μM compound,30%
same,CDK4 % Inhibition at 0.03 μM,"[1]; 0.03 μM compound, Table 2",−3%
Nc1nc(NC2CCN(S(=O)(=O)c3cc(S(=O)(=O)c4ccccc4)cs3)CC2)sc1C(=O)c1c(F)cccc1F [Example P41],HCT-116 % Inhibition at 0.1 μM,HCT-116 cell line; [2],0%
same,HCT-116 % Inhibition at 0.25 μM,"HCT-116 cell line; HCT-116, Table 3",26%
same,CDK2 % Inhibition at 0.03 μM,"CDK2/Cyclin A; 0.03 μM compound, Table 3",80%
same,CDK4 % Inhibition at 0.03 μM,"[1]; 0.03 μM compound, Table 3",66%
"Nc1nc(NC2CCN(S(=O)(=O)CCCSc3ccncc3)CC2)sc1C(=O)c1c(F)cccc1F [Example K23, 1-(4-Amino-2-{1-[3-(pyridin-4-ylsulfanyl)-propane-1-sulfonyl]-piperidin-4-ylamino}-thiazol-5-yl)-1-(2,6-difluoro-phenyl)-methanone.]",IC50,HCT-116 cell line; first HCT-116 column (c4),460 nM
same,IC50,HCT-116 cell line; second HCT-116 column (c5),> 500 nM
same,Ki,CDK2/Cyclin A,2.8 nM
same,Ki,[1],3 nM
Nc1nc(NC2CCN(C(=O)c3cccnc3Cl)CC2)sc1C(=O)c1c(F)cccc1F [Example R18],HCT-116 % Inhibition at 0.1 μM,"HCT-116 cell line; HCT-116 cells, at 0.1 μM",0%
same,HCT-116 5 Inhibition at 0.25 μM,HCT-116 cell line; HCT-116 cells,45
same,CDK2 % Inhibition at 0.03 μM,CDK2/Cyclin A; at 0.03 μM,25%
same,CDK4 % Inhibition at 0.03 μM,[1]; at 0.03 μM,46%
CCOC(=O)C(CC(C)C)NC(=O)N1CCC(Nc2nc(N)c(C(=O)c3c(F)cccc3F)s2)CC1 (stereo not shown) [Example O69],HCT-116 % Inhibition at 0.25 μM,"HCT-116 cell line; HCT-116, Table 2",51%
same,CDK2 % Inhibition At 0.03 μM,CDK2/Cyclin A; 0.03 μM compound,29%
same,CDK4 % Inhibition at 0.03 μM,"[1]; 0.03 μM compound, Table 2",5%
